Earlier results on 47 molecules are cited in publication PMC4360375 (Journal of Medicinal Chemistry, 2015).

Read-outs that look alike come from different tables or passages of the source.

The subject of the data set is GABA uptake, rat synaptosome. As to conditions: literature data set, cited from earlier work.
The mark [1] stands for this setting: ref 10.1016/S0968-0896(01)00148-1.

Take `O=C(O)[C@@H]1CCCN(CCCCCN(c2ccccc2)c2ccccc2)C1` [An_1999/4_(R)-12, OC(=O)[C@@H]1CCCN(C1)CCCCCN(c1ccccc1)c1ccccc1]: the pIC50 (ref 10.1021/jm980492e) is 5.86.

As for `O=C(O)[C@@H]1CCCN(CCCCCCN(c2ccccc2)c2ccccc2)C1` [An_1999/4_(R)-13, OC(=O)[C@@H]1CCCN(C1)CCCCCCN(c1ccccc1)c1ccccc1], the pIC50 (ref 10.1021/jm980492e) is 6.18.

With `O=C(O)[C@@H]1CCCN(CCCCCCCN(c2ccccc2)c2ccccc2)C1` [An_1999/4_(R)-14], the pIC50 (ref 10.1021/jm980492e) is listed as 6.638. On to `O=C(O)[C@@H]1CCCN(CCCCCCCCN(c2ccccc2)c2ccccc2)C1` [An_1999/4_(R)-15], for which the pIC50 (ref 10.1021/jm980492e) is 5.889. As to `O=C(O)[C@@H]1CCCN(CCCCCCCC(=O)N(c2ccccc2)c2ccccc2)C1` [An_1999/4_(R)-16], the pIC50 (ref 10.1021/jm980492e) was 5.046. `O=C(O)[C@@H]1CCCN(CCOCCN(c2ccccc2)c2ccccc2)C1` [An_1999/4_(R)-17, O(CCN1C[C@@H](CCC1)C(O)=O)CCN(c1ccccc1)c1ccccc1]: the pIC50 (ref 10.1021/jm980492e) is 7.046. As to `O=C(O)[C@@H]1CCCN(CCCCOCCN(c2ccccc2)c2ccccc2)C1` [An_1999/4_(R)-18, O(CCCCN1C[C@@H](CCC1)C(O)=O)CCN(c1ccccc1)c1ccccc1], the pIC50 (ref 10.1021/jm980492e) is listed as 6.523. As for `O=C(O)[C@@H]1CCCN(CCCOCCCN(c2ccccc2)c2ccccc2)C1` [An_1999/4_(R)-19, O(CCCN1C[C@@H](CCC1)C(O)=O)CCCN(c1ccccc1)c1ccccc1], the pIC50 (ref 10.1021/jm980492e) is 5.523. As to `O=C(O)[C@@H]1CCCN(CCOCCOCCN(c2ccccc2)c2ccccc2)C1` [An_1999/4_(R)-20, O(CCN1C[C@@H](CCC1)C(O)=O)CCOCCN(c1ccccc1)c1ccccc1], where the note is “ref 10.1021/jm980492e”, the negative logarithm of the IC50 (pIC50) was 5.046. Consider `O=C(O)[C@@H]1CCCN(CCOCC=C(c2ccccc2)c2ccccc2)C1` [An_1999/4_(R)-21, O(CCN1C[C@@H](CCC1)C(O)=O)C\C=C(\c1ccccc1)/c1ccccc1], for which the negative logarithm of the IC50 (pIC50) (ref 10.1021/jm980492e) is recorded as 6.585.

Consider `Cc1ccccc1/C(=C/COCCN1CCC[C@@H](C(=O)O)C1)c1ccccc1` [An_1999/4_(R)-22, O(CCN1C[C@@H](CCC1)C(O)=O)C\C=C(\c1ccccc1C)/c1ccccc1], for which the pIC50 (ref 10.1021/jm980492e) is 6.62. As to `Cc1ccccc1C(=CCOCCN1CCC[C@@H](C(=O)O)C1)c1ccccc1C` [An_1999/4_(R)-23, O(CCN1C[C@@H](CCC1)C(O)=O)C\C=C(\c1ccccc1C)/c1ccccc1C], the negative logarithm of the IC50 (pIC50) (ref 10.1021/jm980492e) is reported as 6.959. In the case of `Cc1ccccc1C(=CCOCCCN1CCC[C@@H](C(=O)O)C1)c1ccccc1C` [An_1999/4_(R)-24, O(CCCN1C[C@@H](CCC1)C(O)=O)C\C=C(\c1ccccc1C)/c1ccccc1C], the pIC50 (ref 10.1021/jm980492e) was 7.097. For `O=C(O)[C@@H]1CCCN(CCOCC=C(c2ccc(Cl)cc2)c2ccc(Cl)cc2)C1` [An_1999/4_(R)-25, Clc1ccc(cc1)\C(=C\COCCN1C[C@@H](CCC1)C(O)=O)\c1ccc(Cl)cc1], the pIC50 (ref 10.1021/jm980492e) is 6.018. Regarding `O=C(O)[C@@H]1CCCN(CCOCC=C(c2ccc(F)cc2)c2ccc(F)cc2)C1` [An_1999/4_(R)-26, Fc1ccc(cc1)\C(=C\COCCN1C[C@@H](CCC1)C(O)=O)\c1ccc(F)cc1], under “ref 10.1021/jm980492e”, the pIC50 was 5.836. Turning to `O=C(O)[C@@H]1CCCN(CCCCC=C(c2ccccc2)c2ccccc2)C1` [An_1999/4_(R)-27, OC(=O)[C@@H]1CCCN(C1)CCCC\C=C(\c1ccccc1)/c1ccccc1], for the setting “ref 10.1021/jm980492e”, the pIC50 is on record as 5.646. `O=C(O)[C@@H]1CCCN(CCCCCCC=C(c2ccccc2)c2ccccc2)C1` [An_1999/4_(R)-28, OC(=O)[C@@H]1CCCN(C1)CCCCCC\C=C(\c1ccccc1)/c1ccccc1]: for the setting “ref 10.1021/jm980492e”, the pIC50 was 5.866. Regarding `Cc1ccccc1[C@H](CCOCCN1CCC[C@@H](C(=O)O)C1)c1ccccc1` [An_1999/4_(R)-31, O(CC[C@@H](c1ccccc1C)c1ccccc1)CCN1C[C@@H](CCC1)C(O)=O], where the note is “ref 10.1021/jm980492e”, the pIC50 is reported as 7.066. In the case of `Cc1ccccc1C(CCOCCN1CCC[C@@H](C(=O)O)C1)c1ccccc1C` [An_1999/4_(R)-32, O(CCC(c1ccccc1C)c1ccccc1C)CCN1C[C@@H](CCC1)C(O)=O], the pIC50 (ref 10.1021/jm980492e) is given as 6.444. For the molecule `O=C(O)[C@@H]1CCCN(CCOCCC(c2ccc(F)cc2)c2ccc(F)cc2)C1` [An_1999/4_(R)-33, Fc1ccc(cc1)C(CCOCCN1C[C@@H](CCC1)C(O)=O)c1ccc(F)cc1], the pIC50 (ref 10.1021/jm980492e) is recorded as 6.167. Turning to `CN(CCC(c1ccccc1)c1ccccc1)CCN1CCC[C@@H](C(=O)O)C1` [An_1999/4_(R)-35, OC(=O)[C@@H]1CCCN(C1)CCN(CCC(c1ccccc1)c1ccccc1)C], for the setting “ref 10.1021/jm980492e”, the pIC50 was 5.244. `O=C(O)[C@@H]1CCCN(CCON=C2c3ccccc3CCc3ccccc32)C1` [An_2001/5_16, O(\N=C/1\c2c(CCc3c\1cccc3)cccc2)CCN1C[C@@H](CCC1)C(O)=O]: the pIC50 (ref 10.1021/jm990513k) is given as 5.936. Consider `O=C(O)[C@@H]1CCCN(CCON=C2c3cc(Cl)ccc3CCc3ccc(Cl)cc32)C1` [An_2001/5_17, Clc1cc\2c(CCc3c(cc(Cl)cc3)/C/2=N\OCCN2C[C@@H](CCC2)C(O)=O)cc1], for which the pIC50 (ref 10.1021/jm990513k) is recorded as 5.259. Regarding `O=C(O)[C@@H]1CCCN(CCOC=C2c3ccccc3CCc3ccccc32)C1` [An_2001/5_18, O(\C=C/1\c2c(CCc3c\1cccc3)cccc2)CCN1C[C@@H](CCC1)C(O)=O], for the setting “ref 10.1021/jm990513k”, the pIC50 was 5.662. Regarding `O=C(O)[C@@H]1CCCN(CCOCCn2c3ccccc3c3ccccc32)C1` [An_2001/5_19, O(CCN1C[C@@H](CCC1)C(O)=O)CCn1c2c(c3c1cccc3)cccc2], under “ref 10.1021/jm990513k”, the pIC50 is 4.398. With `O=C(O)[C@@H]1CCCN(CCOCCN2c3ccccc3Oc3ccccc32)C1` [An_2001/5_20, O1c2c(N(c3c1cccc3)CCOCCN1C[C@@H](CCC1)C(O)=O)cccc2], the negative-log IC50 (pIC50) (ref 10.1021/jm990513k) was 5.836. On to `O=C(O)[C@@H]1CCCN(CCOCCN2c3ccccc3Sc3ccccc32)C1` [An_2001/5_21, S1c2c(N(c3c1cccc3)CCOCCN1C[C@@H](CCC1)C(O)=O)cccc2], for which the pIC50 (ref 10.1021/jm990513k) is recorded as 6.509. With `O=C(O)[C@H]1CCCN(CCOCCN2c3ccccc3Sc3ccc(C(F)(F)F)cc32)C1` [An_2001/5_22, S1c2c(N(c3c1cccc3)CCOCCN1C[C@H](CCC1)C(O)=O)cc(cc2)C(F)(F)F], the pIC50 (ref 10.1021/jm990513k) is given as 6.979.

On to `O=C(O)[C@@H]1CCCN(CCOCCN2c3ccccc3CCc3ccccc32)C1` [An_2001/5_23, O(CCN1C[C@@H](CCC1)C(O)=O)CCN1c2c(CCc3c1cccc3)cccc2], for which, under “ref 10.1021/jm990513k”, the negative logarithm of the IC50 (pIC50) was 6.745. For `O=C(O)C1=CCCN(CCOCCN2c3ccccc3CCc3ccccc32)C1` [An_2001/5_24, O(CCN1CC(=CCC1)C(O)=O)CCN1c2c(CCc3c1cccc3)cccc2], for the setting “ref 10.1021/jm990513k”, the pIC50 was 6.194. Regarding `O=C(O)[C@@H]1CCCN(CCOCCN2c3ccccc3C=Cc3ccccc32)C1` [An_2001/5_26, O(CCN1C[C@@H](CCC1)C(O)=O)CCN1c2c(C=Cc3c1cccc3)cccc2], the pIC50 (ref 10.1021/jm990513k) is on record as 6.187.

On to `O=C(O)[C@@H]1CCCN(CCOCCN2c3ccccc3CCc3ccc(Cl)cc32)C1` [An_2001/5_27, Clc1cc2N(c3c(CCc2cc1)cccc3)CCOCCN1C[C@@H](CCC1)C(O)=O], for which the pIC50 (ref 10.1021/jm990513k) is 7.155. As to `O=C(O)[C@@H]1CCCN(CCOCCN2c3cc(Cl)ccc3CCc3ccc(Cl)cc32)C1` [An_2001/5_28, Clc1cc2N(c3cc(Cl)ccc3CCc2cc1)CCOCCN1C[C@@H](CCC1)C(O)=O], the negative-log IC50 (pIC50) (ref 10.1021/jm990513k) is 7.155. In the case of `O=C(O)[C@@H]1CCCN(CCOCCN2c3ccccc3CCc3ccc(F)cc32)C1` [An_2001/5_29, Fc1cc2N(c3c(CCc2cc1)cccc3)CCOCCN1C[C@@H](CCC1)C(O)=O], the pIC50 (ref 10.1021/jm990513k) is reported as 6.577. Take `O=C(O)[C@@H]1CCCN(CCOCCN2c3ccc(F)cc3CCc3cc(F)ccc32)C1` [An_2001/5_30, Fc1cc2CCc3cc(F)ccc3N(c2cc1)CCOCCN1C[C@@H](CCC1)C(O)=O]: where the note is “ref 10.1021/jm990513k”, the pIC50 is recorded as 6.602. `O=C(O)[C@@H]1CCCN(CCOCCN2c3ccc(Br)cc3CCc3cc(Br)ccc32)C1` [An_2001/5_31, Brc1cc2CCc3cc(Br)ccc3N(c2cc1)CCOCCN1C[C@@H](CCC1)C(O)=O]: for the setting “ref 10.1021/jm990513k”, the pIC50 is on record as 5.987.

`O=C(O)[C@@H]1CCCN(CCOCCCN2c3ccccc3CCc3ccccc32)C1` [An_2001/5_32, O(CCCN1c2c(CCc3c1cccc3)cccc2)CCN1C[C@@H](CCC1)C(O)=O]: the pIC50 (ref 10.1021/jm990513k) was 6.155. With `O=C(O)[C@@H]1CCCN(CCOCCN2c3ccccc3CCCc3ccccc32)C1` [An_2001/5_33, O(CCN1C[C@@H](CCC1)C(O)=O)CCN1c2c(CCCc3c1cccc3)cccc2], the pIC50 (ref 10.1021/jm990513k) is 6.071.

`O=C(O)[C@@H]1CCCN(CCOCC=C2c3ccccc3CCc3ccccc32)C1` [An_2001/5_34, O(CCN1C[C@@H](CCC1)C(O)=O)C\C=C/1\c2c(CCc3c\1cccc3)cccc2]: the pIC50 (ref 10.1021/jm990513k) is recorded as 6.114. With `O=C(O)[C@@H]1CCCN(CCOC/C=C2\c3ccccc3CCc3ccc(Cl)cc32)C1` [An_2001/5_35, Clc1cc\2c(CCc3c(cccc3)/C/2=C\COCCN2C[C@@H](CCC2)C(O)=O)cc1], the pIC50 (ref 10.1021/jm990513k) is 5.603. As for `O=C(O)[C@@H]1CCCN(CCCOCC=C2c3ccccc3CCc3ccccc32)C1` [An_2001/5_36, O(CCCN1C[C@@H](CCC1)C(O)=O)C\C=C/1\c2c(CCc3c\1cccc3)cccc2], where the note is “ref 10.1021/jm990513k”, the pIC50 is on record as 6.337.

In the case of `O=C(O)[C@@H]1CCCN(CCOCCC2c3ccccc3CCc3ccccc32)C1` [An_2001/5_37, O(CCC1c2c(CCc3c1cccc3)cccc2)CCN1C[C@@H](CCC1)C(O)=O], the pIC50 (ref 10.1021/jm990513k) is on record as 6.252. With `O=C(O)C1=CCCN(CCOCCC2c3ccccc3CCc3ccccc32)C1` [An_2001/5_38, O(CCC1c2c(CCc3c1cccc3)cccc2)CCN1CC(=CCC1)C(O)=O], the pIC50 (ref 10.1021/jm990513k) was 5.921. On to `O=C(O)[C@@H]1CCCN(CCO/N=C(\c2ccccc2)C2CC2)C1` [An_2001/6_14, O(\N=C(\C1CC1)/c1ccccc1)CCN1C[C@@H](CCC1)C(O)=O], for which the negative logarithm of the IC50 (pIC50) under setting [1] was 5.907. For `CC(C)C/C(=N/OCCN1CCC[C@@H](C(=O)O)C1)c1ccccc1` [An_2001/6_15, O(\N=C(\CC(C)C)/c1ccccc1)CCN1C[C@@H](CCC1)C(O)=O], the pIC50 under setting [1] was 6.553. For the molecule `O=C(O)[C@@H]1CCCN(CCO/N=C(/Cc2ccccc2)c2ccccc2)C1` [An_2001/6_16, O(\N=C(\Cc1ccccc1)/c1ccccc1)CCN1C[C@@H](CCC1)C(O)=O], the negative-log IC50 (pIC50) under setting [1] is on record as 6.87. As for `O=C(O)[C@@H]1CCCN(CCO/N=C(/Cc2ccc(F)cc2)c2ccc(F)cc2)C1` [An_2001/6_17, Fc1ccc(cc1)C\C(=N\OCCN1C[C@@H](CCC1)C(O)=O)\c1ccc(F)cc1], the pIC50 under setting [1] was 6.036.

For orientation: pIC50 means the negative decadic logarithm of the IC50, by convention in mol/L.
